From the supplement of paper PMC10307832

Experiments:
Assay in all cases: relative viability (nuclei count vs DMSO), 5 days (fraction); higher = more cells survive
NCI-H2085 = system: NCI-H2085
Summary of the method: (§1)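 Five library-drug doses in √10 steps were combined with a fixed anchor-drug dose, or a single drug was given alone, by pin tool to lung cancer cell lines in 1536-well plates the day after seeding. Nuclei were stained and counted after 5 days. Relative viability is the nuclei count in treated wells over that in vehicle wells, taken as the median of duplicate plates.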

201T = system: 201T
Summary of the method: as §1

LU99A = system: LU99A
Summary of the method: as §1

BEN = system: BEN
Summary of the method: as §1

HOP-62 = system: HOP-62
Summary of the method: as §1

PC-3 [JPC-3] = system: PC-3 [JPC-3]
Summary of the method: as §1

LCLC-97TM1 = system: LCLC-97TM1
Summary of the method: as §1

NCI-H1666 = system: NCI-H1666
Summary of the method: as §1

NCI-H1437 = system: NCI-H1437
Summary of the method: as §1

EKVX = system: EKVX
Summary of the method: as §1

NCI-H2087 = system: NCI-H2087
Summary of the method: as §1

SW 1573 = system: SW 1573
Summary of the method: as §1

NCI-H358 = system: NCI-H358
Summary of the method: as §1

NCI-H647 = system: NCI-H647
Summary of the method: as §1

H3255 = system: H3255
Summary of the method: as §1

NCI-H2342 = system: NCI-H2342
Summary of the method: as §1

LOU-NH91 = system: LOU-NH91
Summary of the method: as §1

NCI-H1395 = system: NCI-H1395
Summary of the method: as §1

COR-L 105 = system: COR-L 105
Summary of the method: as §1

NCI-H1975 = system: NCI-H1975
Summary of the method: as §1

EPLC-272H = system: EPLC-272H
Summary of the method: as §1

HCC-827 = system: HCC-827
Summary of the method: as §1

HCC-44 = system: HCC-44
Summary of the method: as §1

C=C1C(=O)O[C@@H](CCCCCCCC)[C@@H]1C(=O)O [C-75] + Cc1cc(Nc2cc(N3CCN(C)CC3)nc(Sc3ccc(NC(=O)C4CC4)cc3)n2)n[nH]1 [Tozasertib] (partner 0.1 µM)
relative viability (NCI-H2085; first compound 0.08 µM): 0.798 | relative viability (NCI-H2085; first compound 0.253 µM): 0.746 | relative viability (NCI-H2085; first compound 0.8 µM): 0.79 | relative viability (NCI-H2085; first compound 2.53 µM): 0.803 | relative viability (NCI-H2085; first compound 8 µM): 0.67 | relative viability (201T; first compound 0.08 µM): 0.985 | relative viability (201T; first compound 0.253 µM): 1.12 | relative viability (201T; first compound 0.8 µM): 1.04 | relative viability (201T; first compound 2.53 µM): 0.932 | relative viability (201T; first compound 8 µM): 1.02 | relative viability (LU99A; first compound 0.08 µM): 0.272 | relative viability (LU99A; first compound 0.253 µM): 0.251 | relative viability (LU99A; first compound 0.8 µM): 0.253 | relative viability (LU99A; first compound 2.53 µM): 0.283 | relative viability (LU99A; first compound 8 µM): 0.288 | relative viability (BEN; first compound 0.08 µM): 0.494 | relative viability (BEN; first compound 0.253 µM): 0.605 | relative viability (BEN; first compound 0.8 µM): 0.544 | relative viability (BEN; first compound 2.53 µM): 0.484 | relative viability (BEN; first compound 8 µM): 0.612 | relative viability (HOP-62; first compound 0.08 µM): 0.373 | relative viability (HOP-62; first compound 0.253 µM): 0.389 | relative viability (HOP-62; first compound 0.8 µM): 0.363 | relative viability (HOP-62; first compound 2.53 µM): 0.385 | relative viability (HOP-62; first compound 8 µM): 0.335 | relative viability (PC-3 [JPC-3]; first compound 0.08 µM): 0.902 | relative viability (PC-3 [JPC-3]; first compound 0.253 µM): 0.921 | relative viability (PC-3 [JPC-3]; first compound 0.8 µM): 0.896 | relative viability (PC-3 [JPC-3]; first compound 2.53 µM): 0.858 | relative viability (PC-3 [JPC-3]; first compound 8 µM): 0.992 | relative viability (LCLC-97TM1; first compound 0.08 µM): 0.23 | relative viability (LCLC-97TM1; first compound 0.253 µM): 0.319 | relative viability (LCLC-97TM1; first compound 0.8 µM): 0.22 | relative viability (LCLC-97TM1; first compound 2.53 µM): 0.16 | relative viability (LCLC-97TM1; first compound 8 µM): 0.187 | relative viability (NCI-H1666; first compound 0.08 µM): 0.653 | relative viability (NCI-H1666; first compound 0.253 µM): 0.66 | relative viability (NCI-H1666; first compound 0.8 µM): 0.647 | relative viability (NCI-H1666; first compound 2.53 µM): 0.613 | relative viability (NCI-H1666; first compound 8 µM): 0.499 | relative viability (NCI-H1437; first compound 0.08 µM): 0.387 | relative viability (NCI-H1437; first compound 0.253 µM): 0.462 | relative viability (NCI-H1437; first compound 0.8 µM): 0.442 | relative viability (NCI-H1437; first compound 2.53 µM): 0.355 | relative viability (NCI-H1437; first compound 8 µM): 0.437 | relative viability (EKVX; first compound 0.08 µM): 0.42 | relative viability (EKVX; first compound 0.253 µM): 0.56 | relative viability (EKVX; first compound 0.8 µM): 0.406 | relative viability (EKVX; first compound 8 µM): 0.382 | relative viability (NCI-H2087; first compound 0.08 µM): 0.245 | relative viability (NCI-H2087; first compound 0.253 µM): 0.294 | relative viability (NCI-H2087; first compound 0.8 µM): 0.179 | relative viability (NCI-H2087; first compound 2.53 µM): 0.228 | relative viability (NCI-H2087; first compound 8 µM): 0.305 | relative viability (SW 1573; first compound 0.08 µM): 0.268 | relative viability (SW 1573; first compound 0.253 µM): 0.161 | relative viability (SW 1573; first compound 0.8 µM): 0.189 | relative viability (SW 1573; first compound 2.53 µM): 0.215 | relative viability (SW 1573; first compound 8 µM): 0.184 | relative viability (NCI-H358; first compound 0.08 µM): 0.0979 | relative viability (NCI-H358; first compound 0.253 µM): 0.104 | relative viability (NCI-H358; first compound 0.8 µM): 0.104 | relative viability (NCI-H358; first compound 2.53 µM): 0.0847 | relative viability (NCI-H358; first compound 8 µM): 0.103 | relative viability (NCI-H647; first compound 0.08 µM): 0.24 | relative viability (NCI-H647; first compound 0.253 µM): 0.365 | relative viability (NCI-H647; first compound 0.8 µM): 0.211 | relative viability (NCI-H647; first compound 2.53 µM): 0.457 | relative viability (NCI-H647; first compound 8 µM): 0.233 | relative viability (H3255; first compound 0.08 µM): 0.609 | relative viability (H3255; first compound 0.253 µM): 0.856 | relative viability (H3255; first compound 0.8 µM): 0.505 | relative viability (H3255; first compound 2.53 µM): 0.701 | relative viability (H3255; first compound 8 µM): 0.751 | relative viability (NCI-H2342; first compound 0.08 µM): 0.652 | relative viability (NCI-H2342; first compound 0.253 µM): 0.503 | relative viability (NCI-H2342; first compound 0.8 µM): 0.604 | relative viability (NCI-H2342; first compound 2.53 µM): 0.496 | relative viability (NCI-H2342; first compound 8 µM): 0.472 | relative viability (LOU-NH91; first compound 0.08 µM): 0.694 | relative viability (LOU-NH91; first compound 0.253 µM): 0.561 | relative viability (LOU-NH91; first compound 0.8 µM): 0.597 | relative viability (LOU-NH91; first compound 2.53 µM): 0.495 | relative viability (LOU-NH91; first compound 8 µM): 0.642 | relative viability (NCI-H1395; first compound 0.08 µM): 0.73 | relative viability (NCI-H1395; first compound 0.253 µM): 0.732 | relative viability (NCI-H1395; first compound 0.8 µM): 0.803 | relative viability (NCI-H1395; first compound 2.53 µM): 0.669 | relative viability (NCI-H1395; first compound 8 µM): 0.795 | relative viability (COR-L 105; first compound 0.08 µM): 0.366 | relative viability (COR-L 105; first compound 0.253 µM): 0.167 | relative viability (COR-L 105; first compound 0.8 µM): 0.412 | relative viability (COR-L 105; first compound 2.53 µM): 0.351 | relative viability (COR-L 105; first compound 8 µM): 0.341 | relative viability (NCI-H1975; first compound 0.08 µM): 0.873 | relative viability (NCI-H1975; first compound 0.253 µM): 0.757 | relative viability (NCI-H1975; first compound 0.8 µM): 0.684 | relative viability (NCI-H1975; first compound 2.53 µM): 0.732 | relative viability (NCI-H1975; first compound 8 µM): 0.78 | relative viability (EPLC-272H; first compound 0.08 µM): 0.299 | relative viability (EPLC-272H; first compound 0.253 µM): 0.243 | relative viability (EPLC-272H; first compound 0.8 µM): 0.22 | relative viability (EPLC-272H; first compound 2.53 µM): 0.25 | relative viability (EPLC-272H; first compound 8 µM): 0.208 | relative viability (HCC-827; first compound 0.08 µM): 0.428 | relative viability (HCC-827; first compound 0.253 µM): 0.413 | relative viability (HCC-827; first compound 0.8 µM): 0.431 | relative viability (HCC-827; first compound 2.53 µM): 0.379 | relative viability (HCC-827; first compound 8 µM): 0.411 | relative viability (HCC-44; first compound 0.08 µM): 0.989 | relative viability (HCC-44; first compound 0.253 µM): 0.942 | relative viability (HCC-44; first compound 0.8 µM): 0.9 | relative viability (HCC-44; first compound 2.53 µM): 0.878 | relative viability (HCC-44; first compound 8 µM): 0.714
